Results: patent US12247019B2 (Centaurus Therapeutics, priority 2018, dated 2025)

Target: T1, Des1 (Homo sapiens, UniProt O15121)
T1 sequence (O15121 1-323): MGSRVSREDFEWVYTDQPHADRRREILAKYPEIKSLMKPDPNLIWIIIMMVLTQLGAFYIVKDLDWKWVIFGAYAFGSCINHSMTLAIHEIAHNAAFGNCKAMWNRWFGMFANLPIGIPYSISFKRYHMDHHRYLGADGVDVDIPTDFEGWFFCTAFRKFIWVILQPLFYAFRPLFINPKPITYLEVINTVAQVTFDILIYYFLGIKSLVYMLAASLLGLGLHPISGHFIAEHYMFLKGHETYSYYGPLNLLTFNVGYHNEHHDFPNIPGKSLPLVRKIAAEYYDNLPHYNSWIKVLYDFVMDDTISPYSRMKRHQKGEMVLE
Assay: Jurkat T cell measurement of conversion of dihydroceramide to ceramide (Des1 activity, LC-MS/MS of NBD-C6-ceramide)
Type: cell-based
Set-up: endogenous in cells; host or cells: Jurkat clone E6-1
Conditions: Jurkat clone E6-1 cells, 10 μM NBD-C6-dihydroceramide, 3 hours at 37° C.; for inhibition at 0.5 µM: 0.5 uM compound, read-out: Des1 % Inhib (0.5 uM); for IC50: read-out: Des1 IC50
Description: Jurkat T Cell Measurement of Conversion of Dihydroceramide to Ceramide
Jurkat clone E6-1 cells were grown and then seeded at 10^6 cells/mL in a 96-well plate (400 μL in each well. The cells were administered 100 μL of cell culture media containing 50-μM NBD-C6-dihydroceramide (Des1 substrate), affording a final concentration of substrate of 10 μM. The cells were incubated with substrate at 4° C. for 30 minutes. Following the incubation at 4° C., the cell suspension was centrifuged at 1200 rpm for 3 minutes, and the cell pellet is resuspended in 400 μL of fresh media containing various concentrations of either fenretinide (known Des1 inhibitor control compound) or test article. The final concentrations of control compound and test compounds were tested in a range from 0-10 μM. The cells and compounds were incubated at 37° C. for 3 hours. Following the 3-hour incubation, the plate was centrifuged at 2500 g for 3 minutes at 4° C., followed by collection and transfer of 200 μL of the supernatant to a new 96-well plate with 300 μL of methanol an containing appropriate internal standards for liquid chromatography/tandem mass spectroscopy (LC/MS/MS) analysis (internal standard: 500 nM labetalol and 100 nM alprazolam). The samples were vortexed for 2 minutes followed by centrifugation at 3,220 g for 20 minutes. Following centrifugation, 200 μL of the supernatant was transferred to a new 96-well plate for LC-MS/MS analysis to determine the amount of NBD-C6-ceramide (Des1 product) produced. The assay was typically performed in duplicate. A reduction of at least 30% compared to vehicle control (0 μM test article) is indicative of an active compound, and a reduction of 75% compared to vehicle control is preferred.

Row | SMILES | inhibition at 0.5 µM [%] | IC50 [nM]
1 | O=C(Nc1ccc(O)cn1)N1CCN(c2cccnc2)CC1 [Example 39, 1-[((5-Hydroxypyridin-2-yl)amino)carbonyl]-4-(pyridin-3-yl)piperazine] | 9.11 | –
2 | CCCCCCNC(=O)Nc1ccc(O)cn1 [Example 40, 1-Hexyl-3-(5-hydroxypyridin-2-yl)urea] | 89.1 | 13
3 | CCCCCCOC(=O)Nc1ccc(O)cn1 [Example 41, Hexyl N-(5-hydroxypyridin-2-yl)carbamate] | 95.1 | 13
4 | O=C(Nc1ccc(O)cn1)OC1CCCCC1 [Example 42, Cyclohexyl N-(5-hydroxypyridin-2-yl)carbamate] | 81.4 | 35
5 | O=C(Nc1ccc(O)cn1)O[C@H]1CC[C@H](c2ccccc2)CC1 [Example 43, (1r,4r)-4-Phenylcyclohexyl N-(5-hydroxypyridin-2-yl)carbamate] | 97 | 6
6 | O=C(Nc1ccc(O)cn1)OC1CCN(c2ccccc2)CC1 [Example 44, 1-Phenylpiperidin-4-yl N-(5-hydroxypyridin-2-yl)carbamate] | 95 | 8
7 | COc1ccc(N2CCN(C(=O)Nc3ccc(O)cn3)CC2)nc1 [Example 45, N-(5-hydroxypyridin-2-yl)-4-(5-methoxypyridin-2-yl)piperazine-1-carboxamide] | – | 470
8 | O=C(Nc1ccc(O)cn1)N1CCN(c2ccc(OC(F)(F)F)cn2)CC1 [Example 46, N-(5-hydroxypyridin-2-yl)-4-[5-(trifluoromethoxy)pyridin-2-yl]piperazine-1-carboxamide] | 94.5 | 7
9 | O=C(Nc1ccc(O)cn1)NC1CCCN(c2ccc(F)cc2)C1 (stereo not shown) [Example 47, 1-[1-(4-fluorophenyl)piperidin-3-yl]-3-(5-hydroxypyridin-2-yl)urea] | 51.8 | –
10 | O=C(Nc1ccc(O)cn1)NC1CCCN(c2ccc(Cl)cc2)C1 (stereo not shown) [Example 48, 1-[1-(4-chlorophenyl)piperidin-3-yl]-3-(5-hydroxypyridin-2-yl)urea] | 39.8 | –
11 | O=C(Nc1ccc(O)cn1)NC1CCN(c2ccc(F)cn2)CC1 [Example 49, 1-[1-(5-fluoropyridin-2-yl)piperidin-4-yl]-3-(5-hydroxypyridin-2-yl)urea] | – | 130
12 | O=C(Nc1ccc(O)cn1)N1CCN(c2ccc(F)nc2)CC1 [Example 50, 4-(6-fluoropyridin-3-yl)-N-(5-hydroxypyridin-2-yl) piperazine-1-carboxamide] | 83 | –
13 | O=C(Nc1ccc(O)cn1)NC1CCN(c2ccc(F)cc2)CC1 [Example 51, 1-[1-(4-fluorophenyl)piperidin-4-yl]-3-(5-hydroxypyridin-2-yl)urea] | 91.5 | 92
14 | O=C(Nc1ccc(O)cn1)NC1CCN(c2ccc(Cl)cc2)CC1 [Example 52, 1-[1-(4-chlorophenyl)piperidin-4-yl]-3-(5-hydroxypyridin-2-yl)urea] | – | 29
15 | O=C(Nc1ccc(O)cn1)OC1CCN(c2ccc(F)cc2)CC1 [Example 53, 1-(4-fluorophenyl)piperidin-4-yl N-(5-hydroxypyridin-2-yl)carbamate] | 94.8 | 4
16 | O=C(Nc1ccc(O)cn1)OC1CCN(c2ccc(F)cc2F)CC1 [Example 54, 1-(2,4-difluorophenyl)piperidin-4-yl N-(5-hydroxypyridin-2-yl)carbamate] | – | 5
17 | O=C(Nc1ccc(O)cn1)OC1CCN(c2ccc(Cl)cc2)CC1 [Example 55, 1-(4-chlorophenyl)piperidin-4-yl N-(5-hydroxypyridin-2-yl)carbamate] | 96.5 | 2

Row | SMILES | inhibition at 0.5 µM [%] | IC50 [nM]
18 | O=C(Nc1ccc(O)cn1)OC1CCN(c2ccc(F)cn2)CC1 [Example 56, 1-(5-fluoropyridin-2-yl)piperidin-4-yl N-(5-hydroxypyridin-2-yl)carbamate] | 94.7 | 28
19 | O=C(Nc1ccc(O)cn1)OC1CCN(c2ccc(C(F)(F)F)cc2)CC1 [Example 57, 1-[4-(trifluoromethyl)phenyl] piperidin-4-yl N-(5-hydroxypyridin-2-yl) carbamate] | 95.5 | 1
20 | O=C(Nc1ccc(O)cn1)OC1CCN(c2ccc(Cl)cc2Cl)CC1 [Example 58, 1-(2,4-dichlorophenyl)piperidin-4-yl N-(5-hydroxypyridin-2-yl)carbamate] | 96.8 | 4
21 | O=C(Nc1ccc(O)cn1)OC1CCN(c2ccccn2)CC1 [Example 59, 1-(pyridin-2-yl)piperidin-4-yl N-(5-hydroxypyridin-2-yl)carbamate] | 93.2 | 43
22 | O=C(Nc1ccc(O)cn1)OC1CCN(c2ccc(C(F)(F)F)cn2)CC1 [Example 60, 1-[5-(trifluoromethyl)pyridin-2-yl]piperidin-4-yl N-(5-hydroxypyridin-2-yl)carbamate] | 96 | 3
23 | CC(C)c1ccc(S(=O)(=O)Nc2ccc(O)cn2)cc1 [Example 61, N-(5-Hydroxypyridin-2-yl)-4-(propan-2-yl)benzene-1-sulfonamide] | 37.5 | –
24 | CC(C)(C)c1ccc(S(=O)(=O)Nc2ccc(O)cn2)cc1 [Example 62, 4-tert-Butyl-N-(5-hydroxypyridin-2-yl)benzene-1-sulfonamide] | 69.4 | 310
25 | O=C(OCc1ccccc1)N1CCC(S(=O)(=O)Nc2ccc(O)cn2)CC1 [Example 63, Benzyl 4-[(5-hydroxypyridin-2-yl)sulfamoyl]piperidine-1-carboxylate] | – | > 1000
26 | O=S(=O)(Nc1ccc(O)cn1)C1CCN(c2ccccc2)CC1 [Example 64, N-(5-hydroxypyridin-2-yl)-1-phenylpiperidine-4-sulfonamide] | 19.2 | –
27 | O=S(=O)(Nc1ccc(O)cn1)C1CCN(Cc2ccccc2)CC1 [Example 65, 1-benzyl-N-(5-hydroxypyridin-2-yl)piperidine-4-sulfonamide] | – | > 1000
28 | O=S(=O)(Nc1ccc(O)cn1)C1CCN(c2ccc(F)cc2)CC1 [Example 66, 1-(4-fluorophenyl)-N-(5-hydroxypyridin-2-yl)piperidine-4-sulfonamide] | 72.1 | –
29 | O=S(=O)(Nc1ccc(O)cn1)C1CCN(c2ccc(Cl)cn2)CC1 [Example 67, 1-(5-chloropyridin-2-yl)-N-(5-hydroxypyridin-2-yl)piperidine-4-sulfonamide] | 85.3 | –
30 | O=S(=O)(Nc1ccc(O)cn1)C1CCN(c2ccc(Cl)cc2)CC1 [Example 68, 1-(4-chlorophenyl)-N-(5-hydroxypyridin-2-yl)piperidine-4-sulfonamide] | 92.4 | 85
31 | O=S(=O)(Nc1ccc(O)cn1)C1CCN(c2ccc(C(F)(F)F)cc2)CC1 [Example 69, N-(5-hydroxypyridin-2-yl)-1-[4-(trifluoromethyl)phenyl]piperidine-4-sulfonamide] | 95 | 40
32 | CC(C)CCCCCS(=O)(=O)Nc1ccc(O)cn1 [Example 70, N-(5-Hydroxypyridin-2-yl)-6-methylheptane-1-sulfonamide] | 83.8 | 110
33 | O=S(=O)(Nc1ccc(O)cn1)N1CCC(c2ccc(Cl)cc2)CC1 [Example 71, 4-(4-chlorophenyl)-N-(5-hydroxypyridin-2-yl)piperidine-1-sulfonamide] | 88 | 31
